According to ChEMBL document CHEMBL1201862, “PubChem BioAssay data set” (2004):
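Tested at 5 concentrations; 48 h exposure; 96-well plates; endpoints linearly interpolated, else capped at highest concentration. GI50 is the concentration that inhibits growth by half.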 Calls of active or inactive are those of the source. Rule as the data show it: active = GI50 up to about 1.1 µM and inactive = higher.

Assays:
Assay in all cases: NCI anticancer screen, dose series, 48 h
[1] = tested on: SN12C
[2] = tested on: OVCAR-3
[3] = tested on: NCI-H460
[4] = tested on: DLD-1
[5] = tested on: UACC-62
[6] = tested on: SK-OV-3
[7] = tested on: SNB-19
[8] = tested on: U-251
[9] = tested on: DMS-273
[10] = tested on: CCRF-CEM
[11] = tested on: HCC 2998
[12] = tested on: LXFL 529
[13] = tested on: UO-31
[14] = tested on: SNB-75
[15] = tested on: TK-10
[16] = tested on: SK-MEL-28
[17] = tested on: SF-268
[18] = tested on: HOP-18
[19] = tested on: A498
[20] = tested on: COLO 205
[21] = tested on: HCT-15
[22] = tested on: HT-29
[23] = tested on: A549
[24] = tested on: SR
[25] = tested on: NCI-H23
[26] = tested on: M14
[27] = tested on: UACC-257
[28] = tested on: K562
[29] = tested on: KM12
[30] = tested on: EKVX
[31] = tested on: SF-295
[32] = tested on: NCI-H226
[33] = tested on: HL-60
[34] = tested on: LOX IMVI
[35] = tested on: CAKI-1
[36] = tested on: RXF 631
[37] = tested on: SF-539
[38] = tested on: Malme-3M
[39] = tested on: OVCAR-8
[40] = tested on: MOLT-4
[41] = tested on: KM-20L2
[42] = tested on: SK-MEL-5
[43] = tested on: 786-0
[44] = tested on: SW-620
[45] = tested on: RPMI-8226
[46] = tested on: IGROV-1
[47] = tested on: HCT-116
[48] = tested on: RXF 393
[49] = tested on: OVCAR-5
[50] = tested on: DMS-114
[51] = tested on: HOP-62
[52] = tested on: M19-MEL
[53] = tested on: XF498
[54] = tested on: ACHN
[55] = tested on: SNB-78
[56] = tested on: SK-MEL-2
[57] = tested on: NCI-H522
[58] = tested on: OVCAR-4
[59] = tested on: HOP-92

For CC(=O)Oc1ccc(O)c2c1CCCC2, the GI50 [1] was > 45.4 µM (inactive), the GI50 [2] was 12.5 µM (inactive) and the GI50 [3] was > 31.6 µM (inactive). For the same compound, the GI50 [4] was 20.7 µM (inactive), the GI50 [5] was > 75.5 µM (inactive) and the GI50 [6] was 46.7 µM (inactive). For the same compound, the GI50 [7] was > 100 µM (inactive), the GI50 [8] was > 78.3 µM (inactive) and the GI50 [9] was > 46.1 µM (inactive). For the same compound, the GI50 [10] was 10.2 µM (inactive), the GI50 [11] was > 100 µM (inactive) and the GI50 [12] was 16.3 µM (inactive). The GI50 [13] was > 45.5 µM (inactive), the GI50 [14] was > 100 µM (inactive) and the GI50 [15] was 21.4 µM (inactive). For the same compound, the GI50 [16] was 66.4 µM (inactive), the GI50 [17] was 58.3 µM (inactive) and the GI50 [18] was 21.6 µM (inactive). The GI50 [19] was > 31.6 µM (inactive), the GI50 [20] was 22.4 µM (inactive) and the GI50 [21] was 13.4 µM. The GI50 [22] was 35.7 µM (inactive), the GI50 [23] was > 100 µM (inactive) and the GI50 [24] was 2.82 µM (inactive). The GI50 [25] was > 52.8 µM (inactive), the GI50 [26] was 24.2 µM (inactive) and the GI50 [27] was 39.9 µM (inactive). The GI50 [28] was 22.2 µM (inactive), the GI50 [29] was > 100 µM (inactive) and the GI50 [30] was 64.9 µM (inactive). The GI50 [31] was > 100 µM (inactive), the GI50 [32] was > 100 µM (inactive) and the GI50 [33] was 3.66 µM (inactive). For the same compound, the GI50 [34] was 19.4 µM (inactive), the GI50 [35] was 31.1 µM (inactive) and the GI50 [36] was > 100 µM (inactive). For the same compound, the GI50 [37] was > 100 µM (inactive), the GI50 [38] was > 40.5 µM (inactive) and the GI50 [39] was 18 µM (inactive). The GI50 [40] was 12.1 µM (inactive), the GI50 [41] was > 100 µM (inactive) and the GI50 [42] was > 45.7 µM (inactive). For the same compound, the GI50 [43] was > 100 µM (inactive), the GI50 [44] was 20.8 µM (inactive) and the GI50 [45] was 23.3 µM (inactive). For the same compound, the GI50 [46] was > 100 µM (inactive), the GI50 [47] was 18.4 µM (inactive) and the GI50 [48] was > 42.8 µM (inactive). The GI50 [49] was > 100 µM (inactive), the GI50 [50] was 30.2 µM (inactive) and the GI50 [51] was > 100 µM (inactive). The GI50 [52] was 13.4 µM (inactive), the GI50 [53] was 16.4 µM (inactive) and the GI50 [54] was 15.2 µM (inactive). The GI50 [55] was 19.8 µM (inactive), the GI50 [56] was > 100 µM (inactive) and the GI50 [57] was 13.6 µM (inactive). For the same compound, the GI50 [58] was 19 µM (inactive).

For O=C1N=C(Nc2ccccc2Cl)SC1C(=O)Nc1ccc([N+](=O)[O-])cc1[N+](=O)[O-] (stereo unspecified), the GI50 [1] was > 100 µM (inactive), the GI50 [2] was > 100 µM (inactive) and the GI50 [3] was > 100 µM (inactive). For the same compound, the GI50 [4] was > 100 µM (inactive), the GI50 [5] was > 100 µM (inactive) and the GI50 [6] was > 100 µM (inactive). The GI50 [7] was > 100 µM (inactive), the GI50 [8] was > 100 µM (inactive) and the GI50 [9] was > 100 µM (inactive). For the same compound, the GI50 [10] was > 100 µM (inactive), the GI50 [11] was > 100 µM (inactive) and the GI50 [12] was > 100 µM (inactive). The GI50 [13] was 72.4 µM (inactive), the GI50 [14] was 66.1 µM (inactive) and the GI50 [15] was 51.6 µM (inactive). For the same compound, the GI50 [16] was > 100 µM (inactive), the GI50 [17] was > 100 µM (inactive) and the GI50 [18] was 22 µM (inactive). The GI50 [19] was > 100 µM (inactive), the GI50 [20] was > 100 µM (inactive) and the GI50 [21] was over 100 µM. For the same compound, the GI50 [22] was > 100 µM (inactive), the GI50 [23] was > 100 µM (inactive) and the GI50 [24] was > 100 µM (inactive). For the same compound, the GI50 [25] was > 100 µM (inactive), the GI50 [59] was 32.5 µM (inactive) and the GI50 [26] was > 100 µM (inactive). The GI50 [27] was > 100 µM (inactive), the GI50 [28] was > 100 µM (inactive) and the GI50 [29] was > 100 µM (inactive). For the same compound, the GI50 [30] was > 100 µM (inactive), the GI50 [31] was > 100 µM (inactive) and the GI50 [32] was 82.8 µM (inactive). The GI50 [33] was > 100 µM (inactive), the GI50 [35] was > 100 µM (inactive) and the GI50 [36] was > 100 µM (inactive). The GI50 [37] was > 100 µM (inactive), the GI50 [38] was > 100 µM (inactive) and the GI50 [39] was > 100 µM (inactive). For the same compound, the GI50 [40] was > 100 µM (inactive), the GI50 [41] was > 100 µM (inactive) and the GI50 [42] was > 100 µM (inactive). The GI50 [43] was > 100 µM (inactive), the GI50 [44] was > 100 µM (inactive) and the GI50 [45] was > 100 µM (inactive). For the same compound, the GI50 [46] was > 100 µM (inactive), the GI50 [47] was > 100 µM (inactive) and the GI50 [48] was > 100 µM (inactive). For the same compound, the GI50 [49] was > 100 µM (inactive), the GI50 [50] was 75.3 µM (inactive) and the GI50 [51] was > 100 µM (inactive). For the same compound, the GI50 [52] was > 100 µM (inactive), the GI50 [53] was > 100 µM (inactive) and the GI50 [54] was > 100 µM (inactive). For the same compound, the GI50 [55] was > 100 µM (inactive), the GI50 [56] was > 100 µM (inactive) and the GI50 [57] was > 100 µM (inactive). For the same compound, the GI50 [58] was > 100 µM (inactive).
